These results are taken from ChEMBL document CHEMBL1201862, “PubChem BioAssay data set” (2004).

Test systems include K562; HCC 2998; DLD-1; ACHN; HOP-92; OVCAR-5; DMS-114; SNB-78; HOP-62; LOX IMVI; DMS-273; SF-539; OVCAR-3; UACC-62; SN12C; COLO 205; KM12; NCI-H522; PC-3.
Holding throughout (assay): growth of human tumour cells (NCI), 48 h

The structures appear in SMILES notation.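 Method: 48-hour compound exposure of cells in 96-well plates, five concentrations, linear interpolation of endpoints. GI50 marks 50% less growth.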 The source made the active and inactive calls. No stated cut-off is given here; in the data, active = GI50 up to about 1.1 µM and inactive = higher. Bounds are passed on as bounds.

Regarding `CCOC(=O)C12CCCC1(O)N(NC(=O)OC(C)(C)C)C(C)=C2C(=O)OC` (stereo not given), the GI50 in the experiment with K562, with HCC 2998, in the experiment on DLD-1, with ACHN, in the experiment on HOP-92 and with OVCAR-5 was > 100 µM (inactive) in each case. Besides, the GI50 in the experiment with DMS-114, in the experiment with SNB-78, in the experiment with HOP-62, with LOX IMVI, in the experiment with DMS-273 and in the experiment with SF-539 was > 100 µM (inactive) in each case. In addition, the GI50 in the experiment on OVCAR-3 was > 100 µM (inactive); in the experiment with UACC-62, > 100 µM (inactive); with SN12C, > 100 µM (inactive); in the experiment on COLO 205 it was > 100 µM (inactive); with KM12 it was > 100 µM (inactive); with NCI-H522, 97.3 µM (inactive).
Turning to `Cc1ccc2c(c1)SC(c1cc3c(cc1Br)OCO3)S2` (stereo not given), the GI50 with K562 is 26.9 µM (inactive); with HCC 2998 it was 31 µM (inactive); in the experiment on DLD-1, > 31.6 µM (inactive); in the experiment on ACHN it was > 31.6 µM (inactive); with HOP-92, 6.22 µM (inactive); in the experiment with OVCAR-5, > 31.6 µM (inactive). In addition, the GI50 was 15.8 µM (inactive) in the experiment with DMS-114; > 31.6 µM (inactive) with SNB-78; > 31.6 µM (inactive) in the experiment with HOP-62; > 31.6 µM (inactive) with LOX IMVI; 20 µM (inactive) in the experiment with DMS-273; > 31.6 µM (inactive) in the experiment on SF-539. Moreover, the GI50 in the experiment with OVCAR-3 was > 31.6 µM (inactive); in the experiment with UACC-62, > 31.6 µM (inactive); in the experiment with SN12C it was > 31.6 µM (inactive); in the experiment with COLO 205, > 31.6 µM (inactive); with KM12 it was 26.7 µM (inactive); with NCI-H522 it was 24.7 µM (inactive).
Consider `NC(CCCCNCc1ccccc1O)C(=O)O` (stereo not given), for which the GI50 in the experiment with K562, with HCC 2998, with DLD-1, in the experiment on ACHN, with HOP-92 and in the experiment with OVCAR-5 was > 100 µM (inactive) throughout. Besides, the GI50 in the experiment on DMS-114, in the experiment with SNB-78, in the experiment with HOP-62, in the experiment on LOX IMVI, in the experiment with DMS-273 and in the experiment with SF-539 was > 100 µM (inactive) each time. The GI50 in the experiment with OVCAR-3, in the experiment on UACC-62, in the experiment on SN12C, with COLO 205, in the experiment on KM12 and in the experiment on NCI-H522 was > 100 µM (inactive) each time.
For `O=C1CCC(=O)N2CCCCN12`, the GI50 with K562, in the experiment on HCC 2998, in the experiment with DLD-1, in the experiment on ACHN, in the experiment with HOP-92 and with OVCAR-5 was > 100 µM (inactive) in each case. In addition, the GI50 with DMS-114, in the experiment with SNB-78, with HOP-62, in the experiment on LOX IMVI, in the experiment with DMS-273 and with SF-539 was > 100 µM (inactive) in each case. Moreover, the GI50 in the experiment with OVCAR-3, with UACC-62, in the experiment with SN12C, with COLO 205, in the experiment with KM12 and in the experiment with NCI-H522 was > 100 µM (inactive) throughout.
Turning to `Cc1cccc(C)c1NC(=O)CCc1nnc2s/c(=C\c3ccc(Cl)cc3)c(=O)n12`, the GI50 in the experiment on K562 was > 100 µM (inactive); in the experiment on HCC 2998, > 100 µM (inactive); in the experiment with DLD-1 it was 37.8 µM (inactive); in the experiment on ACHN it was > 100 µM (inactive); in the experiment on HOP-92, > 100 µM (inactive); in the experiment on OVCAR-5, > 100 µM (inactive). In addition, the GI50 in the experiment on DMS-114 is > 100 µM (inactive); with SNB-78, 70 µM (inactive); in the experiment with HOP-62, 22 µM (inactive); in the experiment on LOX IMVI it was > 100 µM (inactive); with DMS-273, 54.6 µM (inactive); with SF-539, 40.6 µM (inactive). For the same compound, the GI50 in the experiment with OVCAR-3 was > 100 µM (inactive); in the experiment with UACC-62, > 100 µM (inactive); in the experiment with SN12C it was > 100 µM (inactive); with COLO 205, 92 µM (inactive); in the experiment on KM12, > 100 µM (inactive); in the experiment with NCI-H522 it was > 100 µM (inactive).
On to `C/C(CC(=O)Nc1ccc([N+](=O)[O-])cc1)=N\NC(N)=O`, for which the GI50 in the experiment with K562 was > 70.8 µM (inactive); with HCC 2998 it was > 100 µM (inactive); in the experiment on DLD-1, > 77.8 µM (inactive); in the experiment with ACHN it was > 100 µM (inactive); with HOP-92, > 100 µM (inactive); in the experiment with OVCAR-5, > 100 µM (inactive). Also, the GI50 in the experiment on DMS-114 is > 45.8 µM (inactive); in the experiment on SNB-78 it was > 100 µM (inactive); in the experiment on HOP-62, > 100 µM (inactive); in the experiment with LOX IMVI it was > 64.7 µM (inactive); in the experiment with DMS-273 it was > 66.5 µM (inactive); with SF-539, > 100 µM (inactive). Also, the GI50 in the experiment on OVCAR-3 was > 100 µM (inactive); with UACC-62, > 71.3 µM (inactive); in the experiment on SN12C, > 100 µM (inactive); in the experiment with COLO 205 it was > 55.6 µM (inactive); in the experiment with KM12, > 100 µM (inactive); in the experiment with NCI-H522 it was > 81.7 µM (inactive).
With `COc1ccc2c[n+](C)c3c4cc(OC)c(OC)cc4ccc3c2c1`, the GI50 was 2.43 µM (inactive) in the experiment with K562; 8.11 µM (inactive) in the experiment with HCC 2998; 10.8 µM (inactive) with DLD-1; 64.6 µM (inactive) with ACHN; 10.1 µM (inactive) with HOP-92; 8.63 µM (inactive) in the experiment with OVCAR-5. Also, the GI50 with DMS-114 was 1.05 µM (active); in the experiment on SNB-78, 12.2 µM (inactive); with HOP-62, 8.02 µM (inactive); in the experiment with PC-3, 0.849 µM (active); in the experiment on LOX IMVI, 4.72 µM (inactive); with DMS-273 it was 2.28 µM (inactive). Also, the GI50 is 10.7 µM (inactive) in the experiment with SF-539; 3.9 µM (inactive) in the experiment with OVCAR-3; 18.5 µM (inactive) in the experiment on UACC-62; 2.02 µM (inactive) in the experiment on SN12C; 0.776 µM (active) with COLO 205; 1.43 µM (inactive) with KM12. For the same compound, the GI50 with NCI-H522 is 2.03 µM (inactive).
For `O=c1c2cccnc2ncn1CCCN1CCOCC1`, the GI50 in the experiment on K562, in the experiment on HCC 2998, in the experiment on DLD-1, in the experiment on ACHN, in the experiment on HOP-92 and in the experiment on OVCAR-5 was > 100 µM (inactive) each time. In addition, the GI50 in the experiment on DMS-114, in the experiment with SNB-78, in the experiment with HOP-62, with LOX IMVI, with DMS-273 and with SF-539 was > 100 µM (inactive) each time. Besides, the GI50 with OVCAR-3, with UACC-62, with SN12C, in the experiment with COLO 205, with KM12 and in the experiment on NCI-H522 was > 100 µM (inactive) each time.
